Data as given in paper PMC12693167, “Design, Synthesis and Anticancer Activity of 6-Substituted-1-(3,4,5-trimethoxyphenyl)-1H-indole Against Tubulin Polymerisation” (Molecules, 2025).

Columns and labels:
[1] = test system: MCF-7 cells; assay: Annexin V-FITC/PI apoptosis assay; type: cell-based, human; settings: 48 h
Description: Given that mitotic arrest induced by tubulin polymerization inhibitors is commonly associated with apoptosis, an Annexin V-FITC/propidium iodide (PI) assay was conducted to evaluate the pro-apoptotic effect of compound 3g in MCF-7 cells.
MCF-7 cells were seeded into 6-well plates and cultured overnight. After treating with compound 3g (0.1, 1, and 10 μM) for 48 h, cells were harvested and suspended in binding buffer containing annexin V-FITC (0.5 mg/mL) and PI (0.5 mg/mL). After that, samples were incubated for 20 min in the dark and analyzed with a flow cytometer.
Figure 7 Effects of compound 3g on apoptosis in MCF-7 cells. (A) Apoptosis induction by compound 3g in MCF-7 cells. Cells were treated with increasing concentrations of 3g (0.1, 1, and 10 μM) for 48 h, followed by Annexin V-FITC/PI staining and flow cytometric analysis. Cell populations were categorized as necrotic (upper left quadrant), late apoptotic (upper right), viable (lower left), and early apoptotic (lower right). (B) Quantification of apoptotic populations. Bar graphs show the percentage of cells in each apoptotic stage after treatment. Data are presented as mean ± SD from three independent experiments. Statistical significance was determined by one-way ANOVA followed by Tukey’s post hoc test. TEXT PRINTED IN THE PICTURE: (A) Control: Q1(20.37%); Q2(15.42%); Q4(59.96%); Q3(4.25%) | (A) no label printed: Q1(8.46%) (0.1 μM); Q2(23.10%) (0.1 μM); Q4(59.68%) (0.1 μM); Q3(8.75%) (0.1 μM); Q1(8.98%) (1 μM); Q2(29.15%) (1 μM); Q4(50.67%) (1 μM); Q3(11.19%) (1 μM); Q1-UL(12.21%) (10 μM); Q1-UR(40.63%) (10 μM); Q1-LL(34.55%) (10 μM); Q1-LR(12.61%) (10 μM) DOUBTS OF THE COPYIST ABOUT THIS PICTURE: The picture prints no label for the treated substance; only the concentrations 0.1 μM, 1 μM and 10 μM are printed over the plots, so they are given as conditions. / Control is untreated cells rather than a substance; it is listed because quadrant percentages are printed with that name. / The quadrant print is very small, so 3, 5, 6, 8 and 9 cannot be told apart with certainty in any of these values. / Control: Q1 20.37%, Q2 15.42%, Q4 59.96%, Q3 4.25% are best readings. / 0.1 μM: Q1 8.46%, Q2 23.10%, Q4 59.68%, Q3 8.75% are best readings. / 1 μM: Q1 8.98%, Q2 29.15%, Q4 50.67%, Q3 11.19% are best readings. / 10 μM: Q1-UL 12.21%, Q1-UR 40.63%, Q1-LL 34.55%, Q1-LR 12.61% are best readings.

[2] = test system: MCF-7 cells; assay: Wound healing assay; type: cell-based, human; settings: 0.1, 1, 10 μM, 24 h, vs untreated control
Description: The impact of compound 3g on MCF-7 cell migration was assessed using wound healing and transwell migration assays.
MCF-7 cells were seeded and incubated in a 6-well plate overnight. Scratches were made in confluent monolayers with a 200 μL pipette tip. Then, wounds were washed twice with media to remove debris and uprooted cells. Cells were treated with various concentrations (0, 0.1, 1, and 10 μM) of compound 3g. Images were obtained using phase contrast microscopy at 0 and 24 h. The migration distance of cells in the wound area was quantified using ImageJ.
Figure 4 Effect of compound 3g on the migration of MCF-7 breast cancer cells. (A) 3g inhibited the migration of MCF-7 cells at different concentrations in a dose-dependent manner. Representative images of wound healing were captured by an inverted microscope at 0 h and 24 h treatment. Scale bar = 200 μm. (B) Wound closure percentages in the different groups after treatment with 3g for 24 h. (C) Results of the transwell migration assay. Representative images of the stained migrated cells after incubation with 3g at different concentrations for 48 h. Scale bar = 200 μm. Data are presented as the mean ± SD of three independent experiments. Bar values represent the standard deviation SD. ** p < 0.01, and *** p < 0.001 (one-way ANOVA).

[3] = molecular target: T1, purified porcine brain tubulin (Sus scrofa, UniProt P02554); assay: Biolayer interferometry (BLI) binding to tubulin; settings: immobilized tubulin, 1:1 binding model, mean ± SD, triplicate
T1 construct: purified porcine brain tubulin; from tissue; host or cells: porcine brain
Description: To detect the direct interaction between the synthesized compounds and tubulin, biolayer interferometry (BLI) experiments were performed using purified porcine brain tubulin immobilized on Super Streptavidin (SSA) biosensor [30]. […] Association and dissociation kinetics were monitored in real time, and equilibrium dissociation constants (KD) were determined by global fitting of the sensorgrams to a 1:1 binding model. All measurements were conducted in triplicate, and results are reported as mean ± SD.
BLI assays were performed on an Octet RED96 instrument (FortéBio, Pall Life Sciences, Menlo Park, CA, USA) at 25 °C in PBS buffer supplemented with 0.02% (v/v) Tween-20 as the running buffer. Biotinylated tubulin proteins (3 μg/mL) were immobilized onto Super Streptavidin (SSA) biosensors. Association and dissociation were monitored for 60 s each. […] Reference subtraction was performed using sensors incubated in running buffer without protein loading to correct for baseline drift. Data were analyzed using Octet Data Analysis software (version 9.0), and equilibrium dissociation constants (KD) were determined by fitting the curves to a 1:1 binding model. All measurements were performed in triplicate, and results are reported as mean ± SD.
BLI assays were performed on an Octet RED96 instrument (FortéBio, Pall Life Sciences) at 25 °C in PBS buffer supplemented with 0.02% (v/v) Tween-20 as the running buffer. Biotinylated tubulin proteins (3 μg/mL) were immobilized onto Super Streptavidin (SSA) biosensors. Association and dissociation were monitored for 60 s […]
Reference subtraction was performed using sensors incubated in running buffer without protein loading to correct for baseline drift. Data were analyzed using Octet Data Analysis software (version 9.0), and equilibrium dissociation constants (KD) were determined by fitting the curves to a 1:1 binding model. All measurements were performed in triplicate, and results are reported as mean ± SD.

T1 sequence (P02554 whole entry): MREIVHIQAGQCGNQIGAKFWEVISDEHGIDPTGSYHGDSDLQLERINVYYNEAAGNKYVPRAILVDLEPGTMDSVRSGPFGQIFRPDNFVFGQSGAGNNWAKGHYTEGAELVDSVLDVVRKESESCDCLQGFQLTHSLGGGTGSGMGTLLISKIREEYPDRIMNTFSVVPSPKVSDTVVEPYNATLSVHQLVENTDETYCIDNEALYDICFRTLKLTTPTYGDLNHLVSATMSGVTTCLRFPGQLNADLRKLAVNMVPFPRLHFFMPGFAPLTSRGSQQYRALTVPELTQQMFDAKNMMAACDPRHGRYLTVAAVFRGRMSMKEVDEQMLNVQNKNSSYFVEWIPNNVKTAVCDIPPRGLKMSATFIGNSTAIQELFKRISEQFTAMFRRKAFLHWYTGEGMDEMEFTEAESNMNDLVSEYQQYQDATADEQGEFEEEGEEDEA
T1 sequence (P02550 whole entry partner): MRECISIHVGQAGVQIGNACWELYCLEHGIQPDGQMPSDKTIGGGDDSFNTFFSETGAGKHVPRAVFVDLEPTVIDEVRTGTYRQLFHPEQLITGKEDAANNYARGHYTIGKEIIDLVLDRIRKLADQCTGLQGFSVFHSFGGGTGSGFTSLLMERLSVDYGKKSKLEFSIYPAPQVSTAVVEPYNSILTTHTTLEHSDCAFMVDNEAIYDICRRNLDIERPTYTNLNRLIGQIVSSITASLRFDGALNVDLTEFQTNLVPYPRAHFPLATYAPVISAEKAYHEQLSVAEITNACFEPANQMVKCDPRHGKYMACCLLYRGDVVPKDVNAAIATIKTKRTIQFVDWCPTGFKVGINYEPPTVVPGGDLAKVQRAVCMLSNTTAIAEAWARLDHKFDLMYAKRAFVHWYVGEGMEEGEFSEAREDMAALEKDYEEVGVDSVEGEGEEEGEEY

## COc1cc(-n2ccc3ccc(-c4ccc(C)c(C#N)c4)cc32)cc(OC)c1OC [3g, 2-methyl-5-(1-(3,4,5-trimethoxyphenyl)-1H-indol-6-yl)benzonitrile]
[1]; 10 μM
  apoptosis induction: significantly inducing apoptosis
[1]; 0.1, 1 and 10 μM
  apoptotic cell populations: dose-dependent increase
[1]; Homo sapiens, MCF7, 0.1 μM, read-out: viable cells (lower left quadrant, Q4)
  viability at 0.1 µM: 59.7%
[1]; Homo sapiens, MCF7, 1 μM, read-out: viable cells (lower left quadrant, Q4)
  viability at 1 µM: 50.7%
[1]; Homo sapiens, MCF7, 10 μM, read-out: viable cells (lower left quadrant, Q1-LL)
  viability at 10 µM: 34.5%
[2]
  wound closure: markedly inhibited
[3]
  KD: low micromolar range
  Kd: 13 ± 1.17 µM
